# Experimental data published in patent US11690828B2, “Treatment of CNS diseases with sGC stimulators” (Cyclerion Therapeutics, Inc., priority 2016, dated 2023).
# Columns and labels:
# Type in all cases: in vivo, rat
# Conditions in all cases: Compound I-2 p.o. 10 mg/kg; 120 minutes after treatment
# [1] = test system: rats; test: TNBS - colorectal distension
# Protocol: TNBS. Surgery: Colonic sensitivity was induced by surgical administration of TNBS seven days before behavioral testing (D−7). Fasted (overnight) animals underwent surgery. Briefly, under anesthesia (Xylazine 10 mg/kg i.p., ketamine 60 mg/kg i.p.), injection of TNBS (50 mg/kg, 1 mL/kg) was performed into the proximal part of the colon (1 cm from the caecum). After surgery, animals returned in their home cages in a regulated environment, and were fed ad libitum until D−1 (animals were fasted 24 hours before distention). Colorectal distension: Seven days (D0) after TNBS injection, colonic sensitivity was assessed on fasted (overnight) animals by measuring the intra-colonic pressure required to induce a behavioral response during colonic distension. To perform distension, a 5-cm balloon was gently inserted into the colon of vigil animals at 10 cm from the anus and the catheter was taped to the base of the tail. […] Pain behavior was characterized by an elevation of the hind part of the animals body and a clearly visible abdominal contraction corresponding to a severe cramp. Two determinations were performed.
# (§1) Testing: 120 minutes after treatment. N=4/model/test. Results are expressed for each group as a percentage of activity calculated from the mean value of the vehicle-treated animals and compared to naïve animals, control paw, or cut-off value, depending on the test.
# [2] = test system: rats; test: Kaolin - gait score
# Protocol: Kaolin. Induction: In rats, unilateral arthritis was induced by an intra-articular injection of a 10% kaolin suspension into the knee joint of the right hind paw under gas anesthesia (3.5% isoflurane/3 L/min). Gait score: The gait score will be evaluated 3 h 30 min after kaolin administration by:
# 2: intermittent raising of the paw
# as §1
# [3] = test system: Healthy rats; test: Healthy rats - paw pressure test
# Protocol: Paw Pressure Test. Static mechanical hyperalgesia is measured. This test requires the application of an increasing pressure on the hind paws between a flat surface and a blunt pointer. To evaluate the analgesic action of a compound, one hind paw of the animal was inflamed by an injection or injured by ligation, while the other hind paw was not injured or inflamed. The apparatus exerted a steadily increasing force on the hind paws. The reaction threshold was determined as the pressure (g) required to elicit paw withdrawal and/or vocalization. The animals were gently handled by the experimenter and static mechanical hyperalgesia were assessed two times for both hind paws.
# as §1
smiles,measurement,setting,value
Fc1ccccc1Cn1nc(-c2nc(C(F)(F)F)n[nH]2)c2cccnc21 [Compound I-2],"% of activity vs. vehicle, TNBS colorectal distension",[1],43%
same,"% of activity vs. vehicle, kaolin gait score",[2],88%
same,"% of activity vs. vehicle, healthy rats paw pressure test",[3],−10%
